Test results taken from US20240059693A1, “FUSED BICYCLIC PYRAZOLE DERIVATIVES AND METHODS OF USE THEREOF FOR THE TREATMENT OF HERPESVIRUSES” (Merck Sharp & Dohme LLC, priority 2020, published 2024).
Read-outs that look alike come from different tables or passages of the source.

How the values were obtained:
HCMV Strain AD169 = experiment: Viral qPCR assay, HCMV in MRC-5 cells; assay type: cell-based, Human cytomegalovirus; settings: read-out: CMV MRC5 Cell (EC50)
Description: (§1) MRCS cells, Vero cells, and MeWo cells were obtained from ATCC and were maintained at 37° C./5% CO2/90% relative humidity in Minimal Essential Medium with 10% fetal bovine serum, […] L-glutamine, 100 units/ml penicillin and 100 ug/ml streptomycin. Assay plates were prepared by dispensing compounds dissolved in DMSO into wells of 384 well collagen-coated plates using an ECHO acoustic dispenser. Each compound was tested in a 10-point, serial 3-fold dilution. Controls included uninfected cells and infected cells treated only with DMSO. Assays were initiated by mixing selected cells, in suspension, with virus, and dispensing 50 μl/well infected cells to pre-plated compounds. Plates were incubated at 37° C./5% CO2/90% relative humidity for ˜72 hrs to permit genomic replication, and infected cells were lysed by the addition of an equal volume of lysis buffer (10 mM Tris-HCl, pH8, 50 mM KCl, 2 mM MgCl2, 0.45% NP-40, 0.45% Tween-20, and 100 μg/ml proteinase K). An aliquot of the lysate was transferred to a 384-well PCR plate and incubated at 56° C. for 1 hour and then at 95° C. for 10 min. Levels of a viral gene and of the cellular control, PPIA (Thermo Fisher Assay ID=Hs04194521_s1), were measured in separate 10 μL qPCR assays using TaqMan® Gene Expression Master Mix (Applied Biosystems), and an 7900HT Fast Real-Time PCR System with 384-Well Block Module. 7-point, serial 10-fold dilutions of a plasmid standard were run on each plate to generate a standard curve, and genome copies numbers were calculated by plotting experimental Ct onto linear regression of the standard curve. Viral genome copy numbers were normalized by cellular control copy number, and compound effects were normalized to the window defined by the controls. Calculated % effects were fit using a 4-parameter algorithm, and EC50 was reported.
as §1, with “gene” for “gene and of the cellular control, PPIA (Thermo Fisher Assay ID=Hs04194521_s1),”, “in” for “in separate”, “Compound effects on viral” for “Viral”, “number” for “numbers were normalized by cellular control copy number, and compound effects”
HCMV: Strain AD169 Street was assayed in MRC-5 cells and was used at 0.05-0.1 pfu/cell. The assays were performed in either growth media or in the same media with 50% fetal bovine serum. Primer-probe set was Thermo Fisher Assay ID=AIFATFK.

HSV2 = experiment: Viral qPCR assay, HSV2 in MRC5 cells; assay type: cell-based, Herpes Simplex Virus type 2; settings: read-out: HSV2 MRC5 Cell (EC50)
Description: as §1
as §1, with “gene” for “gene and of the cellular control, PPIA (Thermo Fisher Assay ID=Hs04194521_s1),”, “in” for “in separate”, “Compound effects on viral” for “Viral”, “number” for “numbers were normalized by cellular control copy number, and compound effects”

VZV = experiment: Viral qPCR assay, VZV in MRC5 cells; assay type: cell-based, varicella zoster virus; settings: read-out: VZV MRC5 Cell (IC50)
Description: as §1
as §1, with “gene” for “gene and of the cellular control, PPIA (Thermo Fisher Assay ID=Hs04194521_s1),”, “in” for “in separate”, “Compound effects on viral” for “Viral”, “number” for “numbers were normalized by cellular control copy number, and compound effects”
(§2) VZV: Strain Street was maintained as an infected cell stock in MRC-5 cells. It was assayed in MeWo or MRCS cells and was used at 0.04-0.1 pfu/cell. The assays were performed in growth medium. Primer-probe set was Thermo Fisher Assay ID=AIPAEXQ. HSV-1: Strain F Street was assayed in Vero or MRCS cells and was used at 0.0005-0.004 pfu/cell in growth medium. Primer-probe set was Thermo Fisher Assay ID=AIBJZIB

HSV-1 Strain F = experiment: Viral qPCR assay, HSV-1 in MRC5 cells; assay type: cell-based, Herpes Simplex Virus type 1; settings: read-out: HSV1 MRC5 Cell (EC50)
Description: as §1
as §1, with “gene” for “gene and of the cellular control, PPIA (Thermo Fisher Assay ID=Hs04194521_s1),”, “in” for “in separate”, “Compound effects on viral” for “Viral”, “number” for “numbers were normalized by cellular control copy number, and compound effects”
as §2

[1] = molecular target: T1, Human cytomegalovirus DNA polymerase (Human cytomegalovirus, UniProt P08546); experiment: HCMV polymerase assay (AlphaLISA); assay type: biochemical; settings: HCMV DNA polymerase 0.2 nM, 60 minutes at 37° C.; read-out: CMV (IC50)
T1 construct: made in house; host or cells: SF21 insect cells (baculovirus vector)
Description: Human cytomegalovirus and varicella zoster virus DNA polymerases were expressed via baculovirus vector in SF21 cells and purified. Heterodimeric nucleic acid substrate used in the herpesvirus polymerase reactions was generated by annealing a 59-mer template to a 17-mer digoxigenin-labeled primer. Polymerase (HCMV final concentration of 0.2 nM; VZV final concentration of 0.4 nM) was combined with an inhibitor compound or DMSO in assay buffer (10 mM HEPES, pH 7.5, 25 mM KCl, 25 mM NaCl, 5 mM MgCl2, 5% glycerol, 0.67 mg/ml bovine serum albuminutes, and 1 mM tris(2-carboxyethyl)phosphine), and this mixture was pre-incubated for 30 minutes at room temperature in 384-well microtiter plates. The polymerization reaction was initiated by the addition of template/primer substrate (final concentration: 1.6 nM), and dNTPs (final concentration: 24 nM dCTP, 24 nMdGTP, 16 nM dATP, 16 nM dTTP, and 0.8 nM biotin-dUTP). After 60 minutes incubation at 37° C., reactions were terminated with quench buffer (25 mM HEPES pH 7.5, 100 mM NaCl, 0.25% Tween-20, 12 mM EDTA, and 1 mg/ml bovine serum albumin). Incorporation of biotinylated UTP was detected with 2.5-ug/ml anti-DIG AlphaLISA acceptor beads and 5-10 ug/ml streptavidin AlphaLISA donor beads (Perkin Elmer). Compound effects were normalized to the window defined by the controls (DMSO only and pre-quenched wells) and were fit using a 4-parameter algorithm to report an IC50.

[2] = Human betaherpesvirus 5, AD169, MRC5, 72 h
[3] = Human alphaherpesvirus 2, MRC5, 72 h
[4] = Human alphaherpesvirus 3, MRC5, 72 h
[5] = Human alphaherpesvirus 1, MRC5, 72 h

T1 sequence (P08546 whole entry): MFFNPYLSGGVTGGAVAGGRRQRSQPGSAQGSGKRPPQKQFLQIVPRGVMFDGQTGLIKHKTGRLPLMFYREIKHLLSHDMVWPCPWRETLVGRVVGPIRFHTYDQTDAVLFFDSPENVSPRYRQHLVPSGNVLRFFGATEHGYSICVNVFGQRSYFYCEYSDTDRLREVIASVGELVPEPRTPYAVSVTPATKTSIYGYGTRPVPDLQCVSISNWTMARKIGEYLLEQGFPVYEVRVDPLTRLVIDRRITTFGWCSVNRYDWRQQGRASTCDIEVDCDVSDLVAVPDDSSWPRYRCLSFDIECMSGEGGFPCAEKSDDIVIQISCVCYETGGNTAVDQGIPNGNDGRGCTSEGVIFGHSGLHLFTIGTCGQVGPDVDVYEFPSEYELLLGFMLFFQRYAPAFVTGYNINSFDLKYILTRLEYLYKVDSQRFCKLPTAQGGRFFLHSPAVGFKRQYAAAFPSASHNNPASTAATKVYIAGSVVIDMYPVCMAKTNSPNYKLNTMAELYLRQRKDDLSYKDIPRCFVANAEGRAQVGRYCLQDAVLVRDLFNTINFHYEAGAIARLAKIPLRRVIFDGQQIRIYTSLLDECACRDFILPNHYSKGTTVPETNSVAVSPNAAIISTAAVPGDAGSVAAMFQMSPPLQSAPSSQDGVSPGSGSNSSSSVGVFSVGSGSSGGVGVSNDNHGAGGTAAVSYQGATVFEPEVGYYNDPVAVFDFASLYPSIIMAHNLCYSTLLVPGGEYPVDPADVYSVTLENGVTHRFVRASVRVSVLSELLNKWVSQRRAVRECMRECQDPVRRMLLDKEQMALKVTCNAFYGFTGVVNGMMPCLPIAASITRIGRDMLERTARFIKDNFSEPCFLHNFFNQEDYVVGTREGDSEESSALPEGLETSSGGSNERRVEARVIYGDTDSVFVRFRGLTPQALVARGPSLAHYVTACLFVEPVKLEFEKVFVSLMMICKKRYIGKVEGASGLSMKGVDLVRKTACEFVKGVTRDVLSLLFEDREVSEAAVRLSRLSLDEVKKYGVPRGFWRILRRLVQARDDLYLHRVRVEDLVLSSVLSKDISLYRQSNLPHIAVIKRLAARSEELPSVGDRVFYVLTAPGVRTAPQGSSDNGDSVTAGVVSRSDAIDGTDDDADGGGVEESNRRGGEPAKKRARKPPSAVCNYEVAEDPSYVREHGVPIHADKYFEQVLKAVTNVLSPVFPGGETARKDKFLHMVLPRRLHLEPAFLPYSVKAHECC

Structure (SMILES) | EC50 (HCMV Strain AD169; MRC5 cells, ~72 hrs) [nM] | EC50 (HSV2; ~72 hrs) [nM] | IC50 (VZV; ~72 hrs) [nM] | EC50 (HSV-1 Strain F; ~72 hrs) [nM] | IC50 [1] [nM] | EC50 (HCMV Strain AD169; [2]) [nM] | EC50 (HSV2; [3]) [nM] | IC50 (VZV; [4]) [nM] | EC50 (HSV-1 Strain F; [5]) [nM]
CCC1c2c(c(C(=O)NCc3ccc(Cl)cc3)nn2C)CN1C[C@@H]1CCC(=O)N1 (single isomer, unassigned) [Compound 103] | 157 | 63 | 104 | 172 | 17.4 |  |  |  | 
CCC1c2c(c(C(=O)NCc3ccc(Cl)cc3)nn2C)CN1C[C@H]1CCC(=O)N1 (single isomer, unassigned) [Compound 105] | 479 | 274 | 289 | 335 | 23 |  |  |  | 
CC(=O)OCC1c2c(c(C(=O)NCc3ccc(Cl)cc3)nn2C)CN1CC1CCC(=O)N1 (single isomer, unassigned) [Compound 120] | 642 | 2020 | 1780 | 2740 | 121 |  |  |  | 
O=C1CC[C@H](CN2Cc3c(C(=O)NCc4ccc(Cl)cc4)nn(-c4nccs4)c3C2)N1 [Compound 7] |  |  |  |  | 9.82 | 142 | 86.6 | 190 | 118
O=C1CC[C@H](CN2Cc3c(C(=O)NCc4ccc(Cl)cc4)nn(-c4ncc5cnccn45)c3C2)N1 [Compound 8] | 678 | 226 | 479 | 299 | 18.5 |  |  |  | 
Cc1nc(-n2nc(C(=O)NCc3ccc(Cl)cc3)c3c2CN(C[C@H]2CCC(=O)N2)C3)sc1C [Compound 10] |  |  |  |  | 20.9 | 434 | 124 | 172 | 189
Cc1cnc(-n2nc(C(=O)NCc3ccc(Cl)cc3)c3c2CN(C[C@H]2CCC(=O)N2)C3)s1 [Compound 11] |  |  |  |  | 22.7 | 263 | 50.6 | 170 | 172
Cc1csc(-n2nc(C(=O)NCc3ccc(Cl)cc3)c3c2CN(C[C@H]2CCC(=O)N2)C3)n1 [Compound 12] |  |  |  |  | 23 | 175 | 44.8 | 220 | 160
O=C1CC[C@H](CN2Cc3c(C(=O)NCc4ccc(Cl)cc4)nn(-c4ccccn4)c3C2)N1 [Compound 13] |  |  |  |  | 25.8 | 547 | 74.6 | 207 | 284
CCOc1cnc(-n2nc(C(=O)NCc3ccc(Cl)cc3)c3c2CN(C[C@H]2CCC(=O)N2)C3)nc1 [Compound 16] |  |  |  |  | 31.2 | 298 | 74.5 | 208 | 233
O=C1CC[C@H](CN2Cc3c(C(=O)NCc4ccc(Cl)cc4)nn(-c4ncc5ccccc5n4)c3C2)N1 [Compound 18] |  |  |  |  | 71.1 | 555 | 108 | 368 | 229
Cc1cn(C)c(-n2nc(C(=O)NCc3ccc(Cl)cc3)c3c2CN(C[C@H]2CCC(=O)N2)C3)n1 [Compound 19] |  |  |  |  | 90.6 | 399 | 333 | 535 | 650
Cn1ccnc1-n1nc(C(=O)NCc2ccc(Cl)cc2)c2c1CN(C[C@H]1CCC(=O)N1)C2 [Compound 20] |  |  |  |  | 115 | 448 | 143 | 309 | 449
O=C1CC[C@H](CN2Cc3c(C(=O)NCc4ccc(Cl)cc4)nn(-c4cnsn4)c3C2)N1 [Compound 22] | 313 | 251 | 413 | 231 | 11 |  |  |  | 
O=C1CC[C@H](CN2Cc3c(C(=O)NCc4ccc(Cl)cc4)nn(-c4ncco4)c3C2)N1 [Compound 23] |  |  |  |  | 17.2 | 130 | 136 | 325 | 224
O=C1CC[C@H](CN2Cc3c(C(=O)NCc4ccc(Cl)cc4)nn(-c4ncccn4)c3C2)N1 [Compound 28] | 108 | 89.5 | 210 | 139 | 15.2 |  |  |  | 
O=C1CC[C@@H](CN2Cc3c(C(=O)NCc4ccc(Cl)cc4)nn(-c4ncccn4)c3C2)N1 [Compound 31] |  |  |  |  | 26.9 | 435 | 1410 | 1470 | 1040
